Values of other authors as cited in patent US11446277B2, “Penetrating pain relief cream” (priority 2019, dated 2022).

Key:
[1] = test system: aggressive human breast cancer cells; details: in vitro

For `C=C(C)[C@@H]1CCC(C)=C[C@H]1c1c(O)cc(CCCCC)cc1O` [CBD, Cannabidiol], the “growth of aggressive human breast cancer cells” value [1] is given as “reduce growth”, the “invasiveness of aggressive human breast cancer cells” value [1] is given as “reduce their invasiveness” and the growth of bacteria (bacteria) is given as “inhibit the growth of bacteria”. The analgesic properties (animal studies) was “analgesic properties”, the anti-inflammatory activity (animal studies) was “anti-inflammatory activity” and the sedation (animal tests) was “sedative effects”.
